In patent US20090035394A1, “USE OF DNA-PK INHIBITION TO SENSITISE ATM DEFICIENT CANCERS TO DNA-DAMAGING CANCER THERAPIES” (priority 2005, published 2009):

How the values were obtained:
pEBS7 (ATM-null) cells = experiment: Chemopotentiation, sulforhodamine B growth assay in 96 well plates; format: cell-based, human; details: for % survival / Avg (absorbance at 564 nm): no inhibitor, pEBS7; for PF50 (potentiation factor at 50% cell kill): damaging agent without / with KU-0060648 (0.5 μM), pEBS7 (ATM-null)
Protocol: (§1) The A-T fibroblast AT221JE-T cells (pEBS7, herein referred to as ATM-null cells) and the trans-complemented ATM+/+ (pEBS7-YZ5, herein referred to as ATM-competent cells) were grown in DMEM+20% FBS PSG and 100 ug/ml hygromycin. These cells are immortalised fibroblasts from an A-T patient which were transfected with pEBS7-YZ5 vector coding for full length ATM and the hygromycin resistance marker or pEBS7 vector, coding for the hygromycin resistance marker only. (Ziv Y et al (1997) Oncogene 15, 159-67)
(§2) Following a 4-hour incubation to allow cell adherence, 5 μl DNA-PKcS inhibitor KU-0060648 (final concentration 0.5 μM) or DMSO/PBS equivalent was added. After a further 1 hour incubation, 5 μl of chemotherapeutic drug was added per well (see table 1). Drugs were removed after 16 hours and 150 μl fresh medium added per well. After 24h, one plate for each cell line was fixed and stained to account for background differences between the lines. Five days after seeding, the medium was aspirated from the wells of the remaining assay plates and 100 μl ice cold 10% TCA added for 30 minutes at 4° C. The wells were then washed four times with tap water and 50 μl 0.4% sulforhodamine B in 1% acetic acid added per well. After 15 minutes incubation at room temperature, excess stain was washed from the wells with 1% acetic acid. 100 μl […] pH6.8 was then added per well, the plates shaken to resuspend the stain and the absorbance at 564 nm determined.

[1] = tested on: pEBS7-YZ5 (ATM-competent, ATM+/+) cells; experiment: as above; format: cell-based, human; details: for % survival / Avg (absorbance at 564 nm): no inhibitor, pEBS7-YZ; for PF50 (potentiation factor at 50% cell kill): damaging agent without / with KU-0060648 (0.5 μM), pEBS7-YZ (ATM-competent)
Protocol: as §1, §2

[2] = Con: doxorubicin 0.01 (unit not given)
[3] = Con: doxorubicin 0.025 (unit not given)
[4] = Con: doxorubicin 0.05 (unit not given)
[5] = Con: doxorubicin 0.075 (unit not given)
[6] = Con: doxorubicin 0.1 (unit not given)
[7] = Con: doxorubicin 0.25 (unit not given)
[8] = Con: doxorubicin 0.5 (unit not given)
[9] = Con: doxorubicin 0.75 (unit not given)
[10] = Con: doxorubicin 1 (unit not given)
[11] = Con: doxorubicin 2.5 (unit not given)
[12] = Con: doxorubicin 5 (unit not given)
[13] = Con: etoposide 0.01 (μg/ml per Table 1)
[14] = Con: etoposide 0.025 (μg/ml per Table 1)
[15] = Con: etoposide 0.05 (μg/ml per Table 1)
[16] = Con: etoposide 0.075 (μg/ml per Table 1)
[17] = Con: etoposide 0.1 (μg/ml per Table 1)
[18] = Con: etoposide 0.25 (μg/ml per Table 1)
[19] = Con: etoposide 0.5 (μg/ml per Table 1)
[20] = Con: etoposide 0.75 (μg/ml per Table 1)
[21] = Con: etoposide 1 (μg/ml per Table 1)
[22] = Con: etoposide 2.5 (μg/ml per Table 1)
[23] = Con: etoposide 5 (μg/ml per Table 1)

For `COc1cccc2c1C(=O)c1c(O)c3c(c(O)c1C2=O)C[C@@](O)(C(=O)CO)C[C@@H]3O[C@H]1C[C@H](N)[C@H](O)[C@H](C)O1` [Doxorubicin, doxorubicin, reference compound], the “% survival” value (pEBS7 (ATM-null) cells; [2]) was 111.8%, the “Avg (absorbance at 564 nm)” value (pEBS7 (ATM-null) cells; [2]) was 1.46 and the “% survival” value (pEBS7 (ATM-null) cells; [3]) was 117.0%. The “Avg (absorbance at 564 nm)” value (pEBS7 (ATM-null) cells; [3]) was 1.53, the “% survival” value (pEBS7 (ATM-null) cells; [4]) was 106.4% and the “Avg (absorbance at 564 nm)” value (pEBS7 (ATM-null) cells; [4]) was 1.39. For the same molecule, the “% survival” value (pEBS7 (ATM-null) cells; [5]) was 113.1%, the “Avg (absorbance at 564 nm)” value (pEBS7 (ATM-null) cells; [5]) was 1.47 and the “% survival” value (pEBS7 (ATM-null) cells; [6]) was 111.2%. For the same molecule, the “Avg (absorbance at 564 nm)” value (pEBS7 (ATM-null) cells; [6]) was 1.45, the “% survival” value (pEBS7 (ATM-null) cells; [7]) was 63.8% and the “Avg (absorbance at 564 nm)” value (pEBS7 (ATM-null) cells; [7]) was 0.83. The “% survival” value (pEBS7 (ATM-null) cells; [8]) was 37.3%, the “Avg (absorbance at 564 nm)” value (pEBS7 (ATM-null) cells; [8]) was 0.49 and the “% survival” value (pEBS7 (ATM-null) cells; [9]) was 12.6%. The “Avg (absorbance at 564 nm)” value (pEBS7 (ATM-null) cells; [9]) was 0.16, the “% survival” value (pEBS7 (ATM-null) cells; [10]) was −0.9% and the “Avg (absorbance at 564 nm)” value (pEBS7 (ATM-null) cells; [10]) was −0.01. For the same molecule, the “% survival” value (pEBS7 (ATM-null) cells; [11]) was −2.6%, the “Avg (absorbance at 564 nm)” value (pEBS7 (ATM-null) cells; [11]) was −0.03 and the “% survival” value (pEBS7 (ATM-null) cells; [12]) was −3.6%. For the same molecule, the “Avg (absorbance at 564 nm)” value (pEBS7 (ATM-null) cells; [12]) was −0.05, the “PF50 (potentiation factor at 50% cell kill)” value (pEBS7 (ATM-null) cells) was 2.3 and the “% survival” value [1, 2] was 88.3%. For the same molecule, the “Avg (absorbance at 564 nm)” value [1, 2] was 1.43, the “% survival” value [1, 3] was 89.4% and the “Avg (absorbance at 564 nm)” value [1, 3] was 1.45. The “% survival” value [1, 4] was 87.3%, the “Avg (absorbance at 564 nm)” value [1, 4] was 1.42 and the “% survival” value [1, 5] was 94.1%. For the same molecule, the “Avg (absorbance at 564 nm)” value [1, 5] was 1.53, the “% survival” value [1, 6] was 103.9% and the “Avg (absorbance at 564 nm)” value [1, 6] was 1.69. The “% survival” value [1, 7] was 95.3%, the “Avg (absorbance at 564 nm)” value [1, 7] was 1.55 and the “% survival” value [1, 8] was 53.4%. The “Avg (absorbance at 564 nm)” value [1, 8] was 0.87, the “% survival” value [1, 9] was 33.2% and the “Avg (absorbance at 564 nm)” value [1, 9] was 0.54. The “% survival” value [1, 10] was 8.8%, the “Avg (absorbance at 564 nm)” value [1, 10] was 0.14 and the “% survival” value [1, 11] was −1.7%. The “Avg (absorbance at 564 nm)” value [1, 11] was −0.03, the “% survival” value [1, 12] was −2.6% and the “Avg (absorbance at 564 nm)” value [1, 12] was −0.04. The “PF50 (potentiation factor at 50% cell kill)” value [1] was 1.5.

`COc1cc([C@@H]2c3cc4c(cc3[C@@H](O[C@@H]3O[C@@H]5CO[C@@H](C)O[C@H]5[C@H](O)[C@H]3O)[C@H]3COC(=O)[C@H]23)OCO4)cc(OC)c1O` [Etoposide, etoposide, reference compound] was tested, and the “% survival” value (pEBS7 (ATM-null) cells; [13]) was 84.6%, the “Avg (absorbance at 564 nm)” value (pEBS7 (ATM-null) cells; [13]) was 1.38 and the “% survival” value (pEBS7 (ATM-null) cells; [14]) was 84.9%. The “Avg (absorbance at 564 nm)” value (pEBS7 (ATM-null) cells; [14]) was 1.38, the “% survival” value (pEBS7 (ATM-null) cells; [15]) was 89.0% and the “Avg (absorbance at 564 nm)” value (pEBS7 (ATM-null) cells; [15]) was 1.45. For the same molecule, the “% survival” value (pEBS7 (ATM-null) cells; [16]) was 90.8%, the “Avg (absorbance at 564 nm)” value (pEBS7 (ATM-null) cells; [16]) was 1.48 and the “% survival” value (pEBS7 (ATM-null) cells; [17]) was 80.6%. The “Avg (absorbance at 564 nm)” value (pEBS7 (ATM-null) cells; [17]) was 1.31, the “% survival” value (pEBS7 (ATM-null) cells; [18]) was 66.8% and the “Avg (absorbance at 564 nm)” value (pEBS7 (ATM-null) cells; [18]) was 1.09. The “% survival” value (pEBS7 (ATM-null) cells; [19]) was 53.0%, the “Avg (absorbance at 564 nm)” value (pEBS7 (ATM-null) cells; [19]) was 0.86 and the “% survival” value (pEBS7 (ATM-null) cells; [20]) was 15.8%. For the same molecule, the “Avg (absorbance at 564 nm)” value (pEBS7 (ATM-null) cells; [20]) was 0.26, the “% survival” value (pEBS7 (ATM-null) cells; [21]) was 2.5% and the “Avg (absorbance at 564 nm)” value (pEBS7 (ATM-null) cells; [21]) was 0.04. The “% survival” value (pEBS7 (ATM-null) cells; [22]) was 1.2%, the “Avg (absorbance at 564 nm)” value (pEBS7 (ATM-null) cells; [22]) was 0.02 and the “% survival” value (pEBS7 (ATM-null) cells; [23]) was −1.6%. The “Avg (absorbance at 564 nm)” value (pEBS7 (ATM-null) cells; [23]) was −0.03, the “PF50 (potentiation factor at 50% cell kill)” value (pEBS7 (ATM-null) cells) was 6.5 and the “% survival” value [1, 13] was 103.9%. For the same molecule, the “Avg (absorbance at 564 nm)” value [1, 13] was 1.74, the “% survival” value [1, 14] was 93.1% and the “Avg (absorbance at 564 nm)” value [1, 14] was 1.56. For the same molecule, the “% survival” value [1, 15] was 94.1%, the “Avg (absorbance at 564 nm)” value [1, 15] was 1.58 and the “% survival” value [1, 16] was 96.6%. For the same molecule, the “Avg (absorbance at 564 nm)” value [1, 16] was 1.62, the “% survival” value [1, 17] was 104.2% and the “Avg (absorbance at 564 nm)” value [1, 17] was 1.75. For the same molecule, the “% survival” value [1, 18] was 95.8%, the “Avg (absorbance at 564 nm)” value [1, 18] was 1.60 and the “% survival” value [1, 19] was 95.0%. The “Avg (absorbance at 564 nm)” value [1, 19] was 1.59, the “% survival” value [1, 20] was 75.1% and the “Avg (absorbance at 564 nm)” value [1, 20] was 1.26. For the same molecule, the “% survival” value [1, 21] was 32.4%, the “Avg (absorbance at 564 nm)” value [1, 21] was 0.54 and the “% survival” value [1, 22] was 39.0%. The “Avg (absorbance at 564 nm)” value [1, 22] was 0.65, the “% survival” value [1, 23] was 21.7% and the “Avg (absorbance at 564 nm)” value [1, 23] was 0.36. For the same molecule, the “PF50 (potentiation factor at 50% cell kill)” value [1] was 1.7.
